# Patent publication US4056673A, “Phosphonoacetic acid derivatives of nucleosides” (Hoffmann-La Roche Inc., priority 1976, dated 1977)
# Read-outs that look alike come from different tables or passages of the source.
# Tests used:
# [1] = test system: herpes simplex type 1 virus; test: animal or person; assay type: in vivo, mice (Swiss albino); conditions: intraperitoneally, -24, 0, +24 hr, mice, day 21, disodium salt; for ED50: Human alphaherpesvirus 1, ip, 504 h, read-out: PD50 (Protective Dose50)
# [2] = test system: herpes simplex type 2 virus; test: animal or person; assay type: in vivo, mice (Swiss albino); conditions: Human alphaherpesvirus 2, ip, 504 h, intraperitoneally, -24, 0, +24 hr, mice, day 21, read-out: PD50 (Protective Dose50)
# pseudorabies virus = test: animal or person; assay type: in vivo, mice (Swiss albino); conditions: Suid alphaherpesvirus 1, in Mus musculus, ip, 504 h, read-out: PD50 (Protective Dose50)
# leukemia L1210 ascites = test: Leukemia L1210 ascites in mice; assay type: in vivo; conditions: 100 mg/kg intraperitoneally, BDF1 mice
# Ehrlich carcinoma = conditions: for C/T Index: Ehrlich carcinoma; for No. survivors/No. tested: mouse, in vivo, ip
# KA-31 = conditions: for activity against KA-31 solid tumor (in words): 14 ip treatments
# herpes simlpex infection = conditions: oral and topical; Shipkowitz et al. 1973; cited from earlier work
# Marek's disease = conditions: poultry; U.S. Pat. No. 3,836,650; cited from earlier work
compound,measurement,setting,value
O=C(O)CP(=O)(O)OC[C@H]1O[C@@H](n2ccc(=O)[nH]c2=O)[C@H](O)[C@@H]1O [Uridine-5'-mono-carboxymethylphosphonate],ED50,[1],127 mg/kg
Nc1ncnc2c1ncn2[C@@H]1O[C@H](COP(=O)(O)CC(=O)O)[C@@H](O)[C@H]1O [Adenosine-5'-mono-carboxymethylphosphonate],ED50,[1],180 mg/kg
same,ED50,[2],575 mg/kg
same,ED50,pseudorabies virus,386 mg/kg
"Nc1ncnc2c1ncn2[C@H]1C[C@H](O)[C@@H](COP(=O)(O)CC(=O)O)O1 [2'-Deoxyadenosine-5'-monocarboxymethylphosphonate, monoacetonate]",ED50,[1],444 mg/kg
Nc1nc2c(ncn2[C@@H]2O[C@H](COP(=O)(O)CC(=O)O)[C@@H](O)[C@H]2O)c(=O)[nH]1 [Guanosine-5'-mono-carboxymethylphosphonate],ED50,[1],144 mg/kg
"O=C(O)CP(=O)(O)OC[C@H]1O[C@@H](n2cc(F)c(=O)[nH]c2=O)C[C@@H]1O [Compound A, 5-Fluoro-2-deoxyuridine-5'-mono-carboxymethylphosphonate]",activity against leukemia L1210 ascites (in words),leukemia L1210 ascites,inactive
same,activity against sarcoma 180 (in words),sarcoma 180; 12.5 mg/kg,inactive
same,activity against sarcoma 180 (in words),sarcoma 180; 25 mg/kg,active
same,activity against sarcoma 180 (in words),sarcoma 180; 50 mg/kg,active
same,C/T Index,"sarcoma 180; sarcoma 180, 12.5 mg/kg ip × 8",1.7
same,C/T Index,"sarcoma 180; sarcoma 180, 25 mg/kg ip × 8",2.2
same,C/T Index,"sarcoma 180; sarcoma 180, 50 mg/kg ip × 8",5.9
same,activity against Ehrlich carcinoma (in words),Ehrlich carcinoma; 6.25 mg/kg,inactive
same,activity against Ehrlich carcinoma (in words),Ehrlich carcinoma; 12.5 mg/kg,active
same,activity against Ehrlich carcinoma (in words),Ehrlich carcinoma; 25 mg/kg,active
same,activity against Ehrlich carcinoma (in words),Ehrlich carcinoma; 50 mg/kg,active
same,C/T Index,Ehrlich carcinoma; 6.25 mg/kg ip × 8,1.5
same,C/T Index,Ehrlich carcinoma; 12.5 mg/kg ip × 8,2.4
same,C/T Index,Ehrlich carcinoma; 25 mg/kg ip × 8,3.4
same,C/T Index,Ehrlich carcinoma; 50 mg/kg ip × 8,12.1
same,No. survivors/No. tested,Ehrlich carcinoma; 6.25 mg/kg,16/16
same,No. survivors/No. tested,Ehrlich carcinoma; 12.5 mg/kg,24/24
same,No. survivors/No. tested,Ehrlich carcinoma; 25 mg/kg,23/24
same,No. survivors/No. tested,Ehrlich carcinoma; 50 mg/kg,21/24
same,activity against KA-31 solid tumor (in words),KA-31; 6.25 mg/kg,not at 6.25 mg/kg
same,activity against KA-31 solid tumor (in words),KA-31; 12.5 mg/kg,activity was observed
same,activity against KA-31 solid tumor (in words),KA-31; 25 mg/kg,activity was observed
same,C/T Index,"KA-31; KA-31, 6.25 mg/kg ip × 14",1.8
same,C/T Index,"KA-31; KA-31, 12.5 mg/kg ip × 14",3.8
same,C/T Index,"KA-31; KA-31, 25 mg/kg ip × 14",13.8
O=C(O)CP(=O)(O)O [Phosphonoacetic acid],antiviral activity against herpes simplex infection (in words),herpes simlpex infection,antiviral agent exhibiting oral and topical activity against herpes simlpex infection
same,usefulness in combating Marek's disease (in words),Marek's disease,useful in combating Marek's disease in poultry
O=C(O)CP(=O)(O)OC[C@H]1O[C@@H](n2cc(I)c(=O)[nH]c2=O)C[C@@H]1O [5-Iodo-2'-deoxyuridine-5'-mono-carboxymethylphosphonate],ED50,[1],110 mg/kg
Cc1cn([C@H]2C[C@H](O)[C@@H](COP(=O)(O)CC(=O)O)O2)c(=O)[nH]c1=O [Thymidine-5'-mono-carboxymethylphosphonate],ED50,[1],185 mg/kg
"Adenosine-2'-(or 3'),5'-bis-carboxymethylphosphonate",PD50 (Protective Dose50),[1]; 30240 min,197 mg/kg
